Among the data in article PMC4894409 (Scientific Reports, 2015) are IC50 values, retold here.

Structures are written as SMILES.

In assay [1] the target is T1, recombinant human MAO-A (Homo sapiens, UniProt P21397).
T1 construct: purchased BD Biosciences Bedford, MA, USA
T1 sequence (P21397 1-527): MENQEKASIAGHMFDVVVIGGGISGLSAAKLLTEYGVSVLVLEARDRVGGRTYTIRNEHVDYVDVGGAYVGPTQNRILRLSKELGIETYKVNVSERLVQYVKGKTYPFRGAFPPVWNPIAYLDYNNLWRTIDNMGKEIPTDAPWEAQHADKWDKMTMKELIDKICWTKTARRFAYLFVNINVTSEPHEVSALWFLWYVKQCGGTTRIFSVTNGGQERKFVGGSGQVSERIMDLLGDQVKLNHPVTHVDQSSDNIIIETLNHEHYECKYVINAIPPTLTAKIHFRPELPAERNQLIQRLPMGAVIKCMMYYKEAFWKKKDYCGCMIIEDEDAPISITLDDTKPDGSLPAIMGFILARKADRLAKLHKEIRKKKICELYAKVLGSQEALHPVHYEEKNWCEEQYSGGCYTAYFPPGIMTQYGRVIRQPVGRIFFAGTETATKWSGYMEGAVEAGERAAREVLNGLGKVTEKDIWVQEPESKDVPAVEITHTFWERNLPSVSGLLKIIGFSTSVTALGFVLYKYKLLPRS
Nature of the assay: Kynuramine deamination inhibition assay, MAO-A. As to conditions: 80 μM kynuramine, pH 7.4, 37 °C. Format: biochemical. The procedure: (§1) The assay was performed with the addition of inhibitor. Inhibition was calculated as percent of product formation compared to the corresponding control (enzyme-substrate reaction) without the inhibitors. The reactions were carried out in 0.1 M potassium phosphate buffer at pH 7.4. […] The compounds were dissolved in DMSO. The total reaction volume was 200 μL yielding a final DMSO concentration of 1.0% in the reaction mixture.

Assay [2] has as its target T2, recombinant human MAO-B (Homo sapiens, UniProt P27338).
T2 construct: purchased BD Biosciences Bedford, MA, USA
T2 sequence (P27338 1-520): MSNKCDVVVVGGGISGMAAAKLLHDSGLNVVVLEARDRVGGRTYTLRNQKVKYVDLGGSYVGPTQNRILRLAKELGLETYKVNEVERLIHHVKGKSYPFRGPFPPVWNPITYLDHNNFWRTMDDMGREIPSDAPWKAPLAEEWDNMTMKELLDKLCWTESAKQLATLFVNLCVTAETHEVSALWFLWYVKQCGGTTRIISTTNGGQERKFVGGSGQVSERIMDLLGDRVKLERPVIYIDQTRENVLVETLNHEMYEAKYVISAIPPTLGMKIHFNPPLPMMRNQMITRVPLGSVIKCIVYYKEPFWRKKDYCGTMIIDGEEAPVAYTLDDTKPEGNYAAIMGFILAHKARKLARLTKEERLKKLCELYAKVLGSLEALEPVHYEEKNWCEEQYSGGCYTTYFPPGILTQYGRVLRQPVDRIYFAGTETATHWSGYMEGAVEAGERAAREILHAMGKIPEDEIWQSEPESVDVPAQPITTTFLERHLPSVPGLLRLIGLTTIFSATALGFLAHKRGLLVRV
Nature of the assay: Kynuramine deamination inhibition assay, MAO-B. It is filed as biochemical. As to conditions: 50 μM kynuramine, pH 7.4, 37 °C. On the procedure:
as §1

Take `C=CC(=O)O[C@H]1CC[C@]2(C)[C@H]3CC=C4[C@@H]5CC(C)(C)CC[C@]5(C(=O)O)CC[C@@]4(C)[C@]3(C)CC[C@H]2C1(C)C` [D1, Oleanolic acid acrylate]: the values for the 50% inhibitory concentration (IC50) in assay [1] and in assay [2] were 48.8 ± 1.94 µM and > 100 µM, respectively.

What is called IC50 is the concentration at which inhibition is half-maximal.
